In PubChem BioAssay (NCI):
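Five concentrations, 48 hours, 96-well plates. GI50: concentration for 50% inhibition of growth. TGI denotes the concentration required for complete inhibition of growth.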

Assays:
Experiment in all cases: inhibition of tumour cell growth, NCI panel, 48 h
HL-60(TB) leukemia = system: HL-60(TB) leukemia
MCF7 breast = system: MCF7 breast
M14 melanoma = system: M14 melanoma
SF-268 CNS = system: SF-268 CNS
SF-539 CNS = system: SF-539 CNS
SW-620 colon = system: SW-620 colon
HS 578T breast = system: HS 578T breast
U251 CNS = system: U251 CNS
MDA-MB-231 breast = system: MDA-MB-231 breast
OVCAR-8 ovarian = system: OVCAR-8 ovarian
A549 NSCLC = system: A549 NSCLC
OVCAR-4 ovarian = system: OVCAR-4 ovarian
786-0 renal = system: 786-0 renal
MALME-3M melanoma = system: MALME-3M melanoma
UO-31 renal = system: UO-31 renal
NCI-H522 lung = system: NCI-H522 lung
SN12C renal = system: SN12C renal
HCC-2998 colon = system: HCC-2998 colon
SNB-75 CNS = system: SNB-75 CNS
A498 renal = system: A498 renal
HOP-62 NSCLC = system: HOP-62 NSCLC
OVCAR-5 ovarian = system: OVCAR-5 ovarian
UACC-62 melanoma = system: UACC-62 melanoma
UACC-257 melanoma = system: UACC-257 melanoma
IGROV1 ovarian = system: IGROV1 ovarian
NCI/ADR-RES ovarian = system: NCI/ADR-RES ovarian
HT29 colon = system: HT29 colon
SK-OV-3 ovarian = system: SK-OV-3 ovarian
SK-MEL-5 melanoma = system: SK-MEL-5 melanoma
RXF 393 renal = system: RXF 393 renal
NCI-H460 lung = system: NCI-H460 lung
ACHN renal = system: ACHN renal
KM12 colon = system: KM12 colon
SK-MEL-28 melanoma = system: SK-MEL-28 melanoma
MOLT-4 leukemia = system: MOLT-4 leukemia
SNB-19 CNS = system: SNB-19 CNS
DU-145 prostate = system: DU-145 prostate
NCI-H226 lung = system: NCI-H226 lung
TK-10 renal = system: TK-10 renal
SK-MEL-2 melanoma = system: SK-MEL-2 melanoma
MDA-MB-435 = system: MDA-MB-435
PC-3 prostate = system: PC-3 prostate
CCRF-CEM leukemia = system: CCRF-CEM leukemia
SF-295 CNS = system: SF-295 CNS
HOP-92 NSCLC = system: HOP-92 NSCLC
OVCAR-3 ovarian = system: OVCAR-3 ovarian
BT-549 breast = system: BT-549 breast

Structure (SMILES): CC(=O)/C=C/c1ccc(OCc2ccc(C(C)(C)C)cc2)cc1
- GI50 (HL-60(TB) leukemia): > 1000 µM
- TGI (HL-60(TB) leukemia): > 1000 µM
- GI50 (MCF7 breast): > 1000 µM
- TGI (MCF7 breast): > 1000 µM
- GI50 (M14 melanoma): > 1000 µM
- TGI (M14 melanoma): > 1000 µM
- GI50 (SF-268 CNS): > 1000 µM
- TGI (SF-268 CNS): > 1000 µM
- GI50 (SF-539 CNS): > 1000 µM
- TGI (SF-539 CNS): > 1000 µM
- GI50 (SW-620 colon): > 1000 µM
- TGI (SW-620 colon): > 1000 µM
- GI50 (HS 578T breast): > 1000 µM
- TGI (HS 578T breast): > 1000 µM
- GI50 (U251 CNS): > 1000 µM
- TGI (U251 CNS): > 1000 µM
- GI50 (MDA-MB-231 breast): > 1000 µM
- TGI (MDA-MB-231 breast): > 1000 µM
- GI50 (OVCAR-8 ovarian): > 1000 µM
- TGI (OVCAR-8 ovarian): > 1000 µM
- GI50 (A549 NSCLC): > 1000 µM
- TGI (A549 NSCLC): > 1000 µM
- GI50 (OVCAR-4 ovarian): > 1000 µM
- TGI (OVCAR-4 ovarian): > 1000 µM
- GI50 (786-0 renal): > 1000 µM
- TGI (786-0 renal): > 1000 µM
- GI50 (MALME-3M melanoma): > 1000 µM
- TGI (MALME-3M melanoma): > 1000 µM
- GI50 (UO-31 renal): > 1000 µM
- TGI (UO-31 renal): > 1000 µM
- GI50 (NCI-H522 lung): > 1000 µM
- TGI (NCI-H522 lung): > 1000 µM
- GI50 (SN12C renal): > 1000 µM
- TGI (SN12C renal): > 1000 µM
- GI50 (HCC-2998 colon): > 1000 µM
- TGI (HCC-2998 colon): > 1000 µM
- GI50 (SNB-75 CNS): > 1000 µM
- TGI (SNB-75 CNS): > 1000 µM
- GI50 (A498 renal): > 1000 µM
- TGI (A498 renal): > 1000 µM
- GI50 (HOP-62 NSCLC): > 1000 µM
- TGI (HOP-62 NSCLC): > 1000 µM
- GI50 (OVCAR-5 ovarian): > 1000 µM
- TGI (OVCAR-5 ovarian): > 1000 µM
- GI50 (UACC-62 melanoma): > 1000 µM
- TGI (UACC-62 melanoma): > 1000 µM
- GI50 (UACC-257 melanoma): > 1000 µM
- TGI (UACC-257 melanoma): > 1000 µM
- GI50 (IGROV1 ovarian): > 1000 µM
- TGI (IGROV1 ovarian): > 1000 µM
- GI50 (NCI/ADR-RES ovarian): > 1000 µM
- TGI (NCI/ADR-RES ovarian): > 1000 µM
- GI50 (HT29 colon): 40.7 µM
- TGI (HT29 colon): > 1000 µM
- GI50 (SK-OV-3 ovarian): > 1000 µM
- TGI (SK-OV-3 ovarian): > 1000 µM
- GI50 (SK-MEL-5 melanoma): 46.5 µM
- TGI (SK-MEL-5 melanoma): > 1000 µM
- GI50 (RXF 393 renal): > 1000 µM
- TGI (RXF 393 renal): > 1000 µM
- GI50 (NCI-H460 lung): > 1000 µM
- TGI (NCI-H460 lung): > 1000 µM
- GI50 (ACHN renal): > 1000 µM
- TGI (ACHN renal): > 1000 µM
- GI50 (KM12 colon): > 1000 µM
- TGI (KM12 colon): > 1000 µM
- GI50 (SK-MEL-28 melanoma): > 1000 µM
- TGI (SK-MEL-28 melanoma): > 1000 µM
- GI50 (MOLT-4 leukemia): > 1000 µM
- TGI (MOLT-4 leukemia): > 1000 µM
- GI50 (SNB-19 CNS): > 1000 µM
- TGI (SNB-19 CNS): > 1000 µM
- GI50 (DU-145 prostate): > 1000 µM
- TGI (DU-145 prostate): > 1000 µM
- GI50 (NCI-H226 lung): > 1000 µM
- TGI (NCI-H226 lung): > 1000 µM
- GI50 (TK-10 renal): > 1000 µM
- TGI (TK-10 renal): > 1000 µM
- GI50 (SK-MEL-2 melanoma): > 1000 µM
- TGI (SK-MEL-2 melanoma): > 1000 µM
- GI50 (MDA-MB-435): > 1000 µM
- TGI (MDA-MB-435): > 1000 µM
- GI50 (PC-3 prostate): > 1000 µM
- TGI (PC-3 prostate): > 1000 µM
- GI50 (CCRF-CEM leukemia): > 1000 µM
- TGI (CCRF-CEM leukemia): > 1000 µM
- GI50 (SF-295 CNS): > 1000 µM
- TGI (SF-295 CNS): > 1000 µM
- GI50 (HOP-92 NSCLC): > 1000 µM
- TGI (HOP-92 NSCLC): > 1000 µM
- GI50 (OVCAR-3 ovarian): > 1000 µM
- TGI (OVCAR-3 ovarian): > 1000 µM

Structure (SMILES): Clc1cc(Cl)cc(-c2ccc(-c3ccc(/C=N/NC4=NCCN4)cc3)s2)c1
- GI50 (SF-268 CNS): 1.98 µM
- TGI (SF-268 CNS): 4.67 µM
- GI50 (SF-539 CNS): 1.7 µM
- TGI (SF-539 CNS): 3.07 µM
- GI50 (HS 578T breast): 2.3 µM
- TGI (HS 578T breast): 6.41 µM
- GI50 (BT-549 breast): 9.24 µM
- TGI (BT-549 breast): 57.4 µM
- GI50 (SNB-75 CNS): 1.78 µM
- TGI (SNB-75 CNS): 7.93 µM
- GI50 (A498 renal): 1.39 µM
- TGI (A498 renal): 5.78 µM
- GI50 (SK-MEL-5 melanoma): 4.61 µM
- TGI (SK-MEL-5 melanoma): > 100 µM
- GI50 (KM12 colon): 1.71 µM
- TGI (KM12 colon): 3.12 µM
- GI50 (SK-MEL-28 melanoma): 2.09 µM
- TGI (SK-MEL-28 melanoma): 4.69 µM
- GI50 (DU-145 prostate): 1.77 µM
- TGI (DU-145 prostate): 3.2 µM
- GI50 (NCI-H226 lung): 4.16 µM
- TGI (NCI-H226 lung): > 100 µM
